The supplement of paper PMC9663587

How the values were obtained:
Assay in all cases: GRmax, 72 h; higher = less effect;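 also: breast cell lines in 384-well plates, nine doses across a 10^4 range, Dye Drop imaging of viable cells vs DMSO and time-zero plates, GR 0 means no net growth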
AU565 = system: AU565
BT474 = system: BT474
CAL51 = system: CAL51
EFM19 = system: EFM19
HCC1187 = system: HCC1187
MCF12A = system: MCF12A
MDAMB175VII = system: MDAMB175VII
MDAMB231 = system: MDAMB231
MDAMB361 = system: MDAMB361
MGH312 = system: MGH312
PDX1328 = system: PDX1328
SUM185PE = system: SUM185PE
SUM52PE = system: SUM52PE
T47D = system: T47D
ZR7530 = system: ZR7530

Structure (SMILES)	GRmax, 72 h (AU565) [GR]	GRmax, 72 h (BT474) [GR]	GRmax, 72 h (CAL51) [GR]	GRmax, 72 h (EFM19) [GR]	GRmax, 72 h (HCC1187) [GR]	GRmax, 72 h (MCF12A) [GR]	GRmax, 72 h (MDAMB175VII) [GR]	GRmax, 72 h (MDAMB231) [GR]	GRmax, 72 h (MDAMB361) [GR]	GRmax, 72 h (MGH312) [GR]	GRmax, 72 h (PDX1328) [GR]	GRmax, 72 h (SUM185PE) [GR]	GRmax, 72 h (SUM52PE) [GR]	GRmax, 72 h (T47D) [GR]	GRmax, 72 h (ZR7530) [GR]
CN(C)C/C=C/C(=O)Nc1ccc(C(=O)N2CCC[C@@H](Nc3ncc(Cl)c(-c4c[nH]c5ccccc45)n3)C2)cc1 [THZ531] (max 1 µM)	-0.527	-0.861	0.559	-0.557	-0.852	-0.0737	-0.662	-0.276	-0.743	-0.947	-0.184	-0.175	-0.17	-0.141	-0.732
CN(C)C/C=C/C(=O)Nc1ccc(O[C@@H]2CCC[C@@H](Nc3ncc(Cl)c(-c4c[nH]c5ccccc45)n3)C2)cc1 [BSJ-01-175] (max 10 µM)	-0.777	-0.962	-0.368	-0.322	-0.827	-0.292	-0.798	-0.562	-0.804	-0.985	-0.254	-0.47	-0.673	-0.719	-0.943
C=CCn1c(=O)c2cnc(Nc3ccc(N4CCN(C)CC4)cc3)nc2n1-c1cccc(C(C)(C)O)n1 [AZD1775] (max 10 µM)	-0.485	-0.398	-0.188	-0.425	-0.729	-0.21	-0.203	-0.282	-0.348	-0.873	-0.32	0.213	-0.226	0.162	-0.501
CN1CCN(CCOc2cc(OC3CCOCC3)c3c(Nc4c(Cl)ccc5c4OCO5)ncnc3c2)CC1 [Saracatinib/AZD0530] (max 10 µM)	0.147	-0.548	0.258	0.139	0.15	0.414	-0.935	0.28	-0.178	-0.401	-0.108	0.419	0.486	0.389	-0.159
N.N.[Cl][Pt][Cl] [Cisplatin] (max 10 µM)			-0.0329					0.272	-0.35		-0.422			0.102	
CCOc1cc2ncc(C#N)c(Nc3ccc(OCc4ccccn4)c(Cl)c3)c2cc1NC(=O)/C=C/CN(C)C [Neratinib/HKI272] (max 3.162 µM)	-0.638	-0.919	0.28	0.718	0.421	0.103	-0.979	-0.0957	-0.528	-0.278	-0.0735	0.25	0.491	0.195	-0.532
CNC(=O)c1cccc(-c2ccc3c(N4CCOC[C@@H]4C)nc(N4CCOC[C@@H]4C)nc3n2)c1 [AZD2014] (max 10 µM)	-0.0212	-0.421	0.201	-0.0465	0.227	0.147	-0.756	0.241	-0.756	-0.693	0.0715	0.244	-0.0804	-0.0708	-0.24
